Values quoted from earlier work, collected in patent US10172811B2, “Topical antifungal composition for treating onychomycosis” (Polichem S.A., priority 2013, dated 2019).

Legend:
[1] = system: onychomycosis; conditions: topical nail formulation; 48 weeks daily treatment, 12-week follow up
[2] = system: onychomycosis; conditions: oral

Structure (SMILES) | Complete cure [1] | Responders [1] [%] | Complete cure, proportion of patients [2] [%]
Cc1cc(C2CCCCC2)n(O)c(=O)c1 [ciclopirox] | about 13% | ~30 | 
CN(C/C=C/C#CC(C)(C)C)Cc1cccc2ccccc12 [terbinafine] |  |  | 38
